The record followed here is patent US20140105837A1, “NOVEL ARYL C-XYLOSIDE COMPOUNDS, AND COSMETIC USE” (L'OREAL, priority 2008, published 2014).

Type in all cases: cell-based
The test system of experiment [1] is keratinocytes. Nature of the experiment: Sulfated glycosaminoglycan synthesis on keratinocytes (35S-sulfate radioactive label incorporation). Particulars: for % glycosaminoglycan synthesis relative to the control: control = 100; for Mean value (incorporated radioactivity, sulfated GAGs): n=3. The method, then: (§1) Study of the effect of C-glycoside derivatives on sulfated glycosaminoglycan synthesis on fibroblasts and on keratinocytes:
(§2) The study is carried out by measuring the incorporation of radioactive glucosamine into the matrix neosynthesized by cultures of normal human dermal fibroblasts or by keratinocytes. The incorporation of radioactive glucosamine indicates specific neosynthesis of glycosaminoglycans via an incorporation of the acetylated form of this glucosamine.
The keratinocyte cultures are performed in keratinocyte-SFM medium sold by the company Gibco, in the presence of EGF (Epidermal Growth Factor) (0.25 ng/ml), of pituitary extract (25 μg/ml) and of gentamycin (25 μg/ml).
The fibroblasts and the keratinocytes were cultured in 96-well plates. At confluence, the culture medium was replaced with suitable culture medium containing or not containing (control) the test compound or the reference, and then the cells were incubated for 48 hours. The 35S-sulfate radioactive label was added (40 μCi final concentration) and the cells were incubated for a further 24 hours. […]
(§3) The extracellular matrix glycosaminoglycans were extracted with one volume of chaotropic buffer (50 mM Tris/HCl, 4 M guanidine, 5 mM, EDTA, pH 8.0). The sulfated GAGs were purified by ion exchange chromatography: absorption of the anionic molecules onto Q-Sepharose beads under high-stringency conditions, desorption of the molecules which are not very anionic and molecules which are moderately anionic, with a 6 M urea solution containing […] NaCl, and then washing.
(§4) The radioactivity incorporated into the highly […] molecules that have remained on the support (predominantly GAGs) was measured by liquid scintillation.
(§5) The results are evaluated relative to a control consisting of cells which have not been treated with a compound of formula (I).
A positive control (CaCl2 at 1.4 mM) known to stimulate GAG synthesis is introduced into the test carried out on keratinocytes, as a positive reference.
(§6) The results are expressed as percentage variation in glycosaminoglycan synthesis relative to the control.

Experiment [2] relates to normal human dermal fibroblasts. Briefly: Sulfated glycosaminoglycan synthesis on fibroblasts (35S-sulfate radioactive label incorporation). The settings on record: for % glycosaminoglycan synthesis relative to the control / Mean value (incorporated radioactivity, sulfated GAGs): fibroblasts; for % glycosaminoglycan synthesis relative to the control: control = 100; for Effectiveness for increasing sulfated GAG synthesis (in words): summary of the tests on fibroblasts and keratinocytes; for Mean value (incorporated radioactivity, sulfated GAGs): n=3. The method, then:
as §1, §2
The fibroblast cultures are performed according to conventional cell culture methods, namely in DMEM medium sold by the company Gibco, in the presence of L-glutamine (2 mM), of penicillin (50 IU/ml) and of 10% of fetal calf serum (Gibco).
The fibroblasts and the keratinocytes were cultured in 96-well plates. At confluence, the culture medium was replaced with suitable culture medium containing or not containing (control) the test compound or the reference, and then the cells were incubated for 48 hours. The 35S-sulfate radioactive label was added (40 μCi final concentration) and the cells were incubated for a further 24 hours. All the conditions were carried out 3 times.
as §3, §4, §5
A positive control (TGFβ at 10 ng/ml) known to stimulate GAG synthesis is introduced into the test carried out on fibroblasts, as a positive reference.
as §6

The subject of experiment [3] is keratinocytes. Briefly: Sulfated glycosaminoglycan synthesis on keratinocytes (35S-sulfate radioactive label incorporation). Particulars: other experimental plan, n=2.
The test system of experiment [4] is normal human dermal fibroblasts. Nature of the experiment: Sulfated glycosaminoglycan synthesis on fibroblasts (35S-sulfate radioactive label incorporation). Particulars: other experimental plan, n=2.
[5] abbreviates: 0.1 mM, other experimental plan.

For `[Ca+2].[Cl-].[Cl-]` [CaCl2, reference compound], in the experiment with keratinocytes [1] (CaCl2 at 1.4 mM), the “% glycosaminoglycan synthesis relative to the control” value is 117% and the “Mean value (incorporated radioactivity, sulfated GAGs)” value (from here on “Mean value”) came to 5273 cpm.

For the molecule `Oc1ccccc1CCC(O)CC1OC[C@@H](O)[C@H](O)[C@H]1O` (stereo partly drawn) [Compound 8, 1-(α,β)-D-xylopyranosyl-4-(2-hydroxyphenyl)butan-2-ol], the “% glycosaminoglycan synthesis relative to the control” value stood at 316% in the experiment on keratinocytes [1] (setting [5]); 665% in the experiment with keratinocytes [1] (1 mM, other experimental plan); 117% in experiment [2] (setting [5]); 412% in experiment [2] (1 mM, other experimental plan). The “Effectiveness for increasing sulfated GAG synthesis (in words)” value in experiment [2] is “highly effective”. For the same molecule, the “Mean value” value came to 40552 cpm in the experiment on keratinocytes [3] (0.1 mM), 85456 cpm in the experiment on keratinocytes [3] (1 mM), 2938 cpm in experiment [4] (0.1 mM) and 10371 cpm in experiment [4] (1 mM).

Turning to “TGFβ: positive control known to stimulate GAG synthesis, used at 10 ng/ml on fibroblasts [reference compound]”, in experiment [2] (TGFβ at 10 ng/ml), the “% glycosaminoglycan synthesis relative to the control” value is given as 174% and the “Mean value” value stood at 4062 cpm.

Turning to `OC(CCc1ccccc1)CC1OC[C@@H](O)[C@H](O)[C@H]1O` (stereo partly drawn) [Compound 9, 1-(α,β)-D-xylopyranosyl-4-phenylbutan-2-ol], the “% glycosaminoglycan synthesis relative to the control” value with keratinocytes [1] (0.1 μM, other experimental plan) is 563%; in the experiment on keratinocytes [1] (1 μM, other experimental plan) it was 547%; in experiment [2] (setting [5]), 430%; in experiment [2] (1 mM, other experimental plan), 938%. Also, in experiment [2], the “Effectiveness for increasing sulfated GAG synthesis (in words)” value is “highly effective”. For the same molecule, the “Mean value” value was found to be 24106 cpm in the experiment on keratinocytes [3] (0.1 μM), 99041 cpm with keratinocytes [3] (1 μM), 10838 cpm in experiment [4] (0.1 mM) and 23620 cpm in experiment [4] (1 mM).

Turning to `COc1cc(CCC(O)CC2OC[C@@H](O)[C@H](O)[C@H]2O)ccc1O` (stereo partly drawn) [Compound 1, 1-(α,β)-D-xyopyranosyl-4-(4-hydroxy-3-methoxyphenyl)butan-2-ol], the “% glycosaminoglycan synthesis relative to the control” value in the experiment with keratinocytes [1] (0.37 mM) is 707%; in the experiment on keratinocytes [1] (1.1 mM), 813%; in experiment [2] (40 μM), 351%; in experiment [2] (120 μM), 657%. The “Mean value” value in the experiment on keratinocytes [1] (0.37 mM) was 31999 cpm; in the experiment on keratinocytes [1] (1.1 mM), 36795 cpm; in experiment [2] (40 μM), 8130 cpm; in experiment [2] (120 μM), 15318 cpm. Moreover, the “Effectiveness for increasing sulfated GAG synthesis (in words)” value in experiment [2] is on record as “highly effective”; in experiment [2] (listed as example 2), “very effective”.
